The subject of experiment [1] is SV40 immortalized human corneal epithelial cell strains. Nature of the experiment: Cell toxicity, viable cell number by β-hexosaminidase activity, corneal epithelial cells. The class given is cell-based. The conditions noted are these: concentration for survival rate of 50%. Here is the method:
(§1) There were used SV40 immortalized human corneal epithelial cell strains (Araki-Sasaki et al., IOVS, 1995, 36:614-621) as the corneal cells and Chang human conjunctival cell strains (ATCC CCL-20.2) as the conjunctival cells.
(§2) These cells were cultured in 96-well plate to a confluent of 30 to 50% and then each test substance stepwise diluted with the culture medium was added to the foregoing culture medium to thus carry out cultivation at 37° C. After completion of the cultivation, the plate was washed with PBS(−) and the number of residual cells was determined in terms of the β-hexosaminidase activity.
(§3) A group treated with only the solvent, which was used for dissolving the test substance was defined to be a negative control, the viable cell number observed for the control was assumed to be 100%, a dose-correlation curve was prepared on the basis of the viable cell number observed at each concentration of test substance and the concentration of each test substance required for achieving the survival rate of 50% (EC50) was determined from the curve and it was defined to be the toxicity value thereof.

The next experiment deals with Japanese white rabbits. Nature of the experiment: Inflammation in anterior of white rabbit after anterior chamber puncture (secondary aqueous humor PGE2 and protein). The class given is in vivo. The conditions noted are these: for Inhibition Rate (PGE2 Content) / Inhibition Rate (Protein Content): anterior chamber puncture, vs control; for PGE2 Content / Protein Content: secondary aqueous humor after anterior chamber puncture. As to the method: In this Test Example, there were used Japanese white rabbits (available from Japan Medical Animal Source Laboratory) each having a body weight ranging from 1.8 to 2.4 kg and they were divided into groups each consisting of 6 to 7 animals.
After administration of 250 U/kg of heparin (available from Takeda Chemical Industries, Ltd.) to these rabbits through the ear veins thereof, a test substance was dropped in the both eyes in an amount of about 60 μl. After 45 minutes from the dropping of the substance in the eyes, these animals were locally anesthetized with benoxil eye drop (available from Santen Pharmaceutical Co., Ltd.) and then whole of the anterior chamber fluid was collected using a 27G injection needle. This anterior chamber fluid was defined to be a primary aqueous humor. After 90 minutes from the collection of the aqueous humor, the rabbits were killed by anesthetization with an excess of pentobarbital sodium and the aqueous humor was again collected. This anterior chamber fluid was defined to be a secondary aqueous humor.
The concentration of prostaglandin E2 (hereunder referred to as “PGE2”) and the amount of proteins present in the collected secondary aqueous humor were determined and they were used as indications of inflammation. After pre-treatment of 100 μl of the aqueous humor using a Bond Elute C18 column, the concentration of PGE2 was determined using Biotrack PGE2 EIA system (available from Amersham Company). On the other hand, the amount of proteins was determined according to the Lowry method using bovine serum albumin (available from Nakarai Co., Ltd.) as a reference protein.
Etodolac as a test substance was dissolved in castor oil specified in the pharmacopoeia to concentrations of 0.5% and 5%. Meloxicam was diluted with physiological saline prior to use.

The test system of experiment [2] is Chang human conjunctival cell strains (ATCC CCL-20.2). Nature of the experiment: Cell toxicity, viable cell number by β-hexosaminidase activity, conjunctival cells. Format: cell-based. The conditions noted are these: concentration for survival rate of 50%. Here is the method:
as §1, §2, §3

Experiment [3] relates to Japanese white male rabbits. Nature of the experiment: Uveitis induced by LPS in rabbits (aqueous humor PGE2 and protein). The class given is in vivo, rabbit. The conditions noted are these: for Inhibition Rate (PGE2 Content) / Inhibition Rate (Protein Content): LPS uveitis, vs control. Here is the method:
In this Test Example, groups of Japanese white male rabbits each having a body weight ranging from 1.7 to 2.4 kg were used, wherein each group consisted of 12 to 16 eyes.
The lipopolysaccharide (LPS) (055: B5 type, available from Sigma Company) derived from E. coli was administered to these rabbits through the auricular veins in a dose of 1.25 μg/kg to thus induce uveitis. After 4 hours from the administration of LPS, the rabbits were killed by anesthetization with an excess of pentobarbital sodium (available from Tokyo Chemical Industry Co., Ltd.) and the anterior chamber fluid was collected.
The PGE2 concentration and the amount of proteins present in the collected aqueous humor were determined according to the same methods used in Example 1.
In this respect, each test substance was dropped in the both eyes of these animals prior to one hour from the administration of LPS at a dose of about 60 μL/eye. […]

Where [4] appears, read: 24 h, exposure 24 hours, Table 4.
Setting [5] is: 24 h, exposure time 24 hr, Table 5.
The mark [6] stands for this setting: 48 h, exposure time 48 hr, Table 5.
Setting [7] is: aqueous humor 4 hours after LPS, 0.1% eye drop one hour before LPS.
Setting [8] is: aqueous humor 4 hours after LPS, 0.5% eye drop one hour before LPS.
The mark [9] stands for this setting: aqueous humor 4 hours after LPS, 1.0% eye drop one hour before LPS.

A value given as a limit tells only on which side of the number the result lay.

Broadly, the EC50 is the concentration giving half of the maximal effect. The low end stands for a more potent agent, the high end for a less potent agent.

With `CCc1cccc2c3c([nH]c12)C(CC)(CC(=O)O)OCC3` (stereo not shown) [Etodolac, 1,8-diethyl-1,3,4,9-tetrahydropyrano [3,4-b] indole-1-acetic acid], the EC50 is 1000 µM in experiment [1] (setting [4]) and 800 µM in experiment [2] (setting [4]). For the same compound, in the experiment with Japanese white rabbits (aqueous humor, 0.5% and 5% in castor oil, FIG. 1), the “Effect on the PGE2 content increased by the anterior chamber puncture” value is “inhibited the increase”. Besides, the “Effect on the protein content increased by the anterior chamber puncture” value in the experiment with Japanese white rabbits (aqueous humor, 0.5% and 5% in castor oil, FIG. 2) is reported as “inhibited the increase”.

Consider `COc1ccc2c(c1)c(CC(=O)O)c(C)n2C(=O)c1ccc(Cl)cc1` [Indometacin], for which the EC50 in experiment [1] (setting [4]) turned out to be 570 µM; in experiment [2] (setting [4]) it was 370 µM.

Consider `O=C(O)Cc1ccccc1Nc1c(Cl)cccc1Cl` [Diclofenac Sodium], for which the EC50 in experiment [1] (setting [4]) came to 300 µM; in experiment [1] (setting [5]) it was 630 µM; in experiment [1] (setting [6]), 230 µM; in experiment [2] (setting [4]), 130 µM; in experiment [2] (setting [5]), 230 µM; in experiment [2] (setting [6]), 220 µM.

Consider `CS(=O)(=O)Nc1ccc([N+](=O)[O-])cc1OC1CCCCC1` [NS-398, N-(2-(cyclohexyloxy)-4-nitrophenyl) methanesulfonamide], for which the “Inhibition Rate (PGE2 Content)” value in experiment [3] (0.5% in castor oil) was found to be 65.9%; in experiment [3] (5.0% in castor oil), 59.4%. Also, the “PGE2 Content” value is 4553 ± 118.6 pg/mL in experiment [3] (aqueous humor 4 hours after LPS 1.25 μg/kg, 0.5% in castor oil, dropped one hour before LPS) and 542.8 ± 79.8 pg/mL in experiment [3] (aqueous humor 4 hours after LPS 1.25 μg/kg, 5.0% in castor oil, dropped one hour before LPS).

Take `Cc1cnc(NC(=O)C2=C(O)c3ccccc3S(=O)(=O)N2C)s1` [Meloxicam, 4-hydroxy-2-methyl-N-(5-methyl-2-thiazolyl)-2H-1,2-benzo-thiazine-3-carboxamide 1,1-dioxide]: the EC50 was greater than 1000 µM in experiment [1] (setting [5]), 840 µM in experiment [1] (setting [6]), 970 µM in experiment [2] (setting [5]) and 380 µM in experiment [2] (setting [6]). Moreover, the “Inhibition Rate (PGE2 Content)” value in the experiment with Japanese white rabbits (0.1% eye drop) stood at 75.0%; in the experiment on Japanese white rabbits (0.5% eye drop), 90.7%; with Japanese white rabbits (1.0% eye drop) it was 94.2%; in experiment [3] (0.1% eye drop), 55.9%; in experiment [3] (0.5% eye drop), 68.8%; in experiment [3] (1.0% eye drop) it was 63.1%. In addition, the “Inhibition Rate (Protein Content)” value with Japanese white rabbits (0.1% eye drop) is 29.3%; in the experiment with Japanese white rabbits (0.5% eye drop) it was 52.2%; with Japanese white rabbits (1.0% eye drop) it was 47.6%; in experiment [3] (0.1% eye drop) it was 33.8%; in experiment [3] (1.0% eye drop) it was 49.4%. The “PGE2 Content” value amounted to 680.6 pg/mL in the experiment on Japanese white rabbits (0.1% eye drop); 253.5 pg/mL in the experiment on Japanese white rabbits (0.5% eye drop); 158.3 pg/mL in the experiment with Japanese white rabbits (1.0% eye drop); 1102.8 pg/mL in experiment [3] (setting [7]); 780.9 pg/mL in experiment [3] (setting [8]); 922.8 pg/mL in experiment [3] (setting [9]). The “Protein Content” value was found to be 16.2 ± 1.9 mg/mL in the experiment with Japanese white rabbits (0.1% eye drop, about 60 μl both eyes); 11.0 ± 1.5 mg/mL with Japanese white rabbits (0.5% eye drop); 12.0 ± 2.1 mg/mL with Japanese white rabbits (1.0% eye drop); 16.0 ± 1.9 mg/mL in experiment [3] (setting [7]); 14.3 ± 2.6 mg/mL in experiment [3] (setting [8]); 12.2 ± 1.8 mg/mL in experiment [3] (setting [9]).
